Columns and labels:
Assay type in all cases: functional
Escherichia coli [1] = assay: Antibacterial activity against ceftazidime-nonsusceptible Escherichia coli assessed as resistant isolates by CLSI M7-A7 broth microdilution method
Moraxella catarrhalis = assay: Antibacterial activity against beta lactamase-positive Moraxella catarrhalis assessed as susceptible isolates by CLSI M7-A7 broth microdilution method
Pasteurella multocida = assay: Antibacterial activity against Pasteurella multocida by CLSI M7-A7 broth microdilution method
Enterobacter cloacae [2] = assay: Antibacterial activity against ceftazidime-susceptible Enterobacter cloacae assessed as susceptible isolates by CLSI M7-A7 broth microdilution method
Streptococcus pyogenes [3] = assay: Antibacterial activity against erythromycin-nonsusceptible Streptococcus pyogenes by CLSI M7-A7 broth microdilution method
Proteus mirabilis [4] = assay: Antibacterial activity against ceftazidime-susceptible Proteus mirabilis assessed as resistant isolates by CLSI M7-A7 broth microdilution method
Enterobacter cloacae [5] = assay: Antibacterial activity against ceftazidime-nonsusceptible Enterobacter cloacae by CLSI M7-A7 broth microdilution method
Staphylococcus aureus [6] = assay: Antibacterial activity against coagulase-negative and oxacillin-resistant Staphylococcus aureus assessed as resistant isolates by CLSI M7-A7 broth microdilution method
Enterobacter cloacae [7] = assay: Antibacterial activity against ceftazidime-nonsusceptible Enterobacter cloacae assessed as resistant isolates by CLSI M7-A7 broth microdilution method
Streptococcus viridans [8] = assay: Antibacterial activity against penicillin-susceptible Streptococcus viridans by CLSI M7-A7 broth microdilution method
Morganella morganii = assay: Antibacterial activity against ceftazidime-susceptible Morganella morganii by CLSI M7-A7 broth microdilution method
Staphylococcus aureus [9] = assay: Antibacterial activity against methicillin-resistant Staphylococcus aureus assessed as susceptible isolates by CLSI M7-A7 broth microdilution method
Staphylococcus aureus [10] = assay: Antibacterial activity against coagulase-negative and oxacillin-susceptible Staphylococcus aureus assessed as susceptible isolates by CLSI M7-A7 broth microdilution method
Streptococcus pyogenes [11] = assay: Antibacterial activity against erythromycin-susceptible Streptococcus pyogenes by CLSI M7-A7 broth microdilution method
Escherichia coli [12] = assay: Antibacterial activity against ceftazidime-susceptible Escherichia coli by CLSI M7-A7 broth microdilution method
Acinetobacter [13] = assay: Antibacterial activity against imipenem-susceptible Acinetobacter assessed as susceptible isolates by CLSI M7-A7 broth microdilution method
Klebsiella pneumoniae [14] = assay: Antibacterial activity against ceftazidime-nonsusceptible Klebsiella pneumoniae assessed as resistant isolates by CLSI M7-A7 broth microdilution method
Enterococcus faecium = assay: Antibacterial activity against vancomycin-resistant Enterococcus faecium by CLSI M7-A7 broth microdilution method
Enterobacteriaceae [15] = assay: Antibacterial activity against ceftazidime-nonsusceptible Enterobacteriaceae by CLSI M7-A7 broth microdilution method
Staphylococcus aureus [16] = assay: Antibacterial activity against methicillin-resistant Staphylococcus aureus by CLSI M7-A7 broth microdilution method
Staphylococcus aureus [17] = assay: Antibacterial activity against methicillin-resistant Staphylococcus aureus assessed as resistant isolates by CLSI M7-A7 broth microdilution method
Acinetobacter [18] = assay: Antibacterial activity against imipenem-susceptible Acinetobacter assessed as resistant isolates by CLSI M7-A7 broth microdilution method
Enterobacteriaceae [19] = assay: Antibacterial activity against ceftazidime-susceptible Enterobacteriaceae by CLSI M7-A7 broth microdilution method
Klebsiella pneumoniae [20] = assay: Antibacterial activity against ceftazidime-susceptible Klebsiella pneumoniae by CLSI M7-A7 broth microdilution method
Enterobacter cloacae [21] = assay: Antibacterial activity against ceftazidime-susceptible Enterobacter cloacae by CLSI M7-A7 broth microdilution method
Escherichia coli [22] = assay: Antibacterial activity against ceftazidime-susceptible Escherichia coli assessed as susceptible isolates by CLSI M7-A7 broth microdilution method
Haemophilus influenzae [23] = assay: Antibacterial activity against beta lactamase-negative Haemophilus influenzae by CLSI M7-A7 broth microdilution method
Enterobacteriaceae [24] = assay: Antibacterial activity against ceftazidime-susceptible Enterobacteriaceae assessed as susceptible isolates by CLSI M7-A7 broth microdilution method
Streptococcus viridans [25] = assay: Antibacterial activity against penicillin-nonsusceptible Streptococcus viridans by CLSI M7-A7 broth microdilution method
Streptococcus pneumoniae [26] = assay: Antibacterial activity against penicillin-susceptible Streptococcus pneumoniae assessed as resistant isolates by CLSI M7-A7 broth microdilution method
Proteus mirabilis [27] = assay: Antibacterial activity against ceftazidime-susceptible Proteus mirabilis assessed as susceptible isolates by CLSI M7-A7 broth microdilution method
Streptococcus pneumoniae [28] = assay: Antibacterial activity against penicillin-susceptible Streptococcus pneumoniae assessed as susceptible isolates by CLSI M7-A7 broth microdilution method
Streptococcus pneumoniae [29] = assay: Antibacterial activity against penicillin-resistant Streptococcus pneumoniae by CLSI M7-A7 broth microdilution method
Streptococcus pneumoniae [30] = assay: Antibacterial activity against penicillin-resistant Streptococcus pneumoniae assessed as resistant isolates by CLSI M7-A7 broth microdilution method
Klebsiella pneumoniae [31] = assay: Antibacterial activity against ceftazidime-susceptible Klebsiella pneumoniae assessed as susceptible isolates by CLSI M7-A7 broth microdilution method
Escherichia coli [32] = assay: Antibacterial activity against ceftazidime-nonsusceptible Escherichia coli assessed as susceptible isolates by CLSI M7-A7 broth microdilution method
Haemophilus influenzae [33] = assay: Antibacterial activity against beta lactamase-positive Haemophilus influenzae by CLSI M7-A7 broth microdilution method
Klebsiella pneumoniae [34] = assay: Antibacterial activity against ceftazidime-nonsusceptible Klebsiella pneumoniae by CLSI M7-A7 broth microdilution method
Streptococcus pneumoniae [35] = assay: Antibacterial activity against penicillin-susceptible Streptococcus pneumoniae by CLSI M7-A7 broth microdilution method
Enterobacter cloacae [36] = assay: Antibacterial activity against ceftazidime-susceptible Enterobacter cloacae assessed as resistant isolates by CLSI M7-A7 broth microdilution method
Streptococcus agalactiae = assay: Antibacterial activity against erythromycin-nonsusceptible Streptococcus agalactiae by CLSI M7-A7 broth microdilution method
Streptococcus pneumoniae [37] = assay: Antibacterial activity against penicillin-resistant Streptococcus pneumoniae assessed as susceptible isolates by CLSI M7-A7 broth microdilution method
Providencia sp. = assay: Antibacterial activity against ceftazidime-susceptible Providencia sp. by CLSI M7-A7 broth microdilution method
Enterobacteriaceae [38] = assay: Antibacterial activity against ceftazidime-nonsusceptible Enterobacteriaceae assessed as resistant isolates by CLSI M7-A7 broth microdilution method

Work on `C[C@H]1COc2c(N3CCN(C)CC3)c(F)cc3c(=O)c(C(=O)O)cn1c23.C[C@H]1COc2c(N3CCN(C)CC3)c(F)cc3c(=O)c(C(=O)O)cn1c23.O` [LEVOFLOXACIN] yielded an Activity (Escherichia coli [1]) of 85.7%, an Activity (Moraxella catarrhalis) of 100% and an MIC50 (Pasteurella multocida) of no more than 0.015 µg/mL. The MIC90 (Pasteurella multocida) was 0.03 µg/mL, the Activity (Enterobacter cloacae [2]) was 94% and the MIC50 (Streptococcus pyogenes [3]) was 0.5 µg/mL. The MIC90 (Streptococcus pyogenes [3]) was 1 µg/mL, the Activity (Proteus mirabilis [4]) was 20.7% and the MIC50 (Enterobacter cloacae [5]) was 0.12 µg/mL. For the same compound, the MIC90 (Enterobacter cloacae [5]) was 1 µg/mL, the Activity (Staphylococcus aureus [6]) was 73.9% and the Activity (Enterobacter cloacae [7]) was 25.7%. It also gave an MIC50 (Streptococcus viridans [8]) of 1 µg/mL, an MIC90 (Streptococcus viridans [8]) of 1 µg/mL and an MIC50 (Morganella morganii) of no more than 0.03 µg/mL. It also gave an MIC90 (Morganella morganii) of 8 µg/mL, an Activity (Staphylococcus aureus [9]) of 25.6% and an Activity (Staphylococcus aureus [10]) of 81.6%. It also gave an MIC50 (Streptococcus pyogenes [11]) of 0.5 µg/mL, an MIC90 (Streptococcus pyogenes [11]) of 1 µg/mL and an MIC50 (Escherichia coli [12]) of no more than 0.03 µg/mL. The MIC90 (Escherichia coli [12]) was 16 µg/mL, the Activity (Acinetobacter [13]) was 51.1% and the Activity (Klebsiella pneumoniae [14]) was 54.5%. It also gave an MIC (Enterococcus faecium) greater than 16 µg/mL, an MIC50 (Enterococcus faecium) greater than 16 µg/mL and an MIC90 (Enterococcus faecium) greater than 16 µg/mL. It also gave an MIC50 (Enterobacteriaceae [15]) of 8 µg/mL, an MIC90 (Enterobacteriaceae [15]) greater than 16 µg/mL and an MIC50 (Staphylococcus aureus [16]) of 8 µg/mL. It also gave an MIC90 (Staphylococcus aureus [16]) greater than 16 µg/mL, an Activity (Staphylococcus aureus [17]) of 73.2% and an Activity (Acinetobacter [18]) of 36.2%. For the same compound, the MIC50 (Enterobacteriaceae [19]) was 0.06 µg/mL, the MIC90 (Enterobacteriaceae [19]) was 4 µg/mL and the MIC50 (Klebsiella pneumoniae [20]) was 0.06 µg/mL. It also gave an MIC90 (Klebsiella pneumoniae [20]) of 0.25 µg/mL, an MIC (Enterobacter cloacae [21]) of no more than 0.03 µg/mL and an MIC50 (Enterobacter cloacae [21]) of no more than 0.03 µg/mL. It also gave an MIC90 (Enterobacter cloacae [21]) of 0.5 µg/mL, an Activity (Escherichia coli [22]) of 86.4% and an MIC50 (Haemophilus influenzae [23]) of 0.015 µg/mL. For the same compound, the MIC90 (Haemophilus influenzae [23]) was 0.03 µg/mL, the Activity (Enterobacteriaceae [24]) was 89.6% and the MIC50 (Streptococcus viridans [25]) was 1 µg/mL. The MIC90 (Streptococcus viridans [25]) was 2 µg/mL, the Activity (Streptococcus pneumoniae [26]) was 1.5% and the Activity (Proteus mirabilis [27]) was 75.9%. It also gave an Activity (Streptococcus pneumoniae [28]) of 98.5%, an MIC50 (Streptococcus pneumoniae [29]) of 0.5 µg/mL and an MIC90 (Streptococcus pneumoniae [29]) of 1 µg/mL. It also gave an Activity (Streptococcus pneumoniae [30]) of 0.7%, an Activity (Klebsiella pneumoniae [31]) of 98.1% and an Activity (Escherichia coli [32]) of 14.3%. For the same compound, the MIC50 (Haemophilus influenzae [33]) was 0.015 µg/mL, the MIC90 (Haemophilus influenzae [33]) was 0.03 µg/mL and the MIC50 (Klebsiella pneumoniae [34]) was 8 µg/mL. It also gave an MIC90 (Klebsiella pneumoniae [34]) greater than 16 µg/mL, an MIC50 (Streptococcus pneumoniae [35]) of 0.5 µg/mL and an MIC90 (Streptococcus pneumoniae [35]) of 1 µg/mL. For the same compound, the Activity (Enterobacter cloacae [36]) was 2%, the MIC50 (Streptococcus agalactiae) was 1 µg/mL and the MIC90 (Streptococcus agalactiae) was 1 µg/mL. It also gave an Activity (Streptococcus pneumoniae [37]) of 99.3%, an MIC50 (Providencia sp.) of 0.25 µg/mL and an MIC90 (Providencia sp.) greater than 16 µg/mL. For the same compound, the Activity (Enterobacteriaceae [38]) was 51.4%.
